This is an account of results in patent publication US10877024B2, “Methods of determining interferon having direct inhibitory effects on tumors and uses thereof” (SUPERLAB FAR EAST LIMITED, priority 2015, dated 2020).

Each structure is given as a SMILES string.

Series [1] concerns procaspase-3, cleaved caspase-3, procaspase-8, cleaved caspase-8, PARP. Description: Apoptosis-related molecular markers by Western Blot. The series is classed as cell-based, human. As to conditions: A549 and SW620 cells, 24 hr or 48 hr; interferons 10 mcg/ml. The source says: Thereafter, apoptosis-related molecular markers were monitored by Western Blot. The primary antibodies used were mouse monoclonal anti-beta-tubulin (1:2000, Cat #: CW0098A) and mouse monoclonal anti-GAPDH (1:2000, Cat #: CW0100A) (Kangwei Biotechnology, China); mouse monoclonal anti-PARP (1:1000, Cat #: sc-2007, Santa Cruz Biotechnology, Inc.); rabbit monoclonal anti-procaspase 3 (1:1000, Cat #: 9665), and rabbit polyclonal anti-cleaved caspase 3 (1:1000, Cat #: 9661) (Cell Signaling Technology, USA); goat polyclonal anti-procaspase 8 (1:1000, Cat #: sc-6136, Santa Cruz Biotechnology, Inc); rabbit monoclonal anti-cleaved caspase 8 (1:1000, Cat #: 9496) (Cell Signaling Technology, USA).
(Immunoblotting shows a protein as a band on a membrane.)

The test system of series [2] is human hepatoma SMMC-7721 xenografts. Description: rSIFN-co on human hepatoma SMMC-7721 xenografts in nude mice. As to conditions: 5 mg/kg i.v. A general note: A xenograft is tissue or cells of one species grown in another, often human tumour cells in immunodeficient mice.
Method: The test article was used without dilution. It was stored at 4° C. until thawed for injection.
The animals used were 4-6 weeks old male BALB/cA nu/nu mice, weighing about 23±2 g, obtained from the Shanghai Institute of Materia Medica (Shanghai, P.R. China). […] Animals were housed 6 to a cage. They were ear-marked with ear hole punch identification. The room temperature was maintained at 25° C.±+1° C. Lighting was set at 12 hr on and 12 hr off. Food was provided ad libitum. City tap water, filtered with a 5 micrometer (μm) filter, was provided to the animals ad libitum via water bottles.
The test article was administered in a volume of 0.05 ml-0.15 ml per mouse per treatment, depending on the group to which the animal was assigned. […] Normal saline was injected in a volume of 0.15 ml per mouse, which was used as vehicle control.
Animals were assigned to treatment groups randomly. Initially, all animals were placed in one large animal cage. For assignment to the study, they were later separately housed, with 6 animals per cage per treatment group. Groups 1 and 2 are Control groups in which the animals were each administered the vehicle every other day after the first treatment. […] Tumor growth was monitored by measuring the length and width of each tumor twice a week during the course of the study. Each animal was also weighed twice a week during the course of the study.
Before commencement of this study, the xenografts were passaged twice in nude mice. Under sterile conditions, well-grown tumors were cut into 1.5 mm^3 fragments and one such fragment was injected by trocar needle into the right flank of each study animal. […] Individual tumor size (length and width) was measured twice per week with microcalipers. Tumor volume (V) was calculated using the formula: V=(length×width^2)/2. Individual relative tumor volume (RTV) was calculated using the formula: RTV=Vt/V0, where Vt is the tumor volume on the day of measurement and V0 is the tumor volume on the day of first treatment. Therapeutic effect of the test article or control article was expressed in terms of T/C (%), using the formula: T/C (%)=(mean RTV of the treated group/mean RTV of the control group)×100%; and in terms of % Inhibition, using the formula: % Inhibition=100%−T/C %.
The subject of series [3] is Human Cervical Cancer Hela Xenografts. The series is described as follows: rSIFN-co on human cervical cancer Hela xenografts in nude mice. The series is classed as in vivo. As to conditions: 5 mg/kg i.v. days 1 and 13. On the procedure: Then 1.5 mm^3 fragments were prepared for s.c. implantation into the animals.
The subject of series [4] is Human Colon Cancer HT-29 Xenografts. Description: rSIFN-co on human colon cancer HT-29 xenografts in nude mice. The series is classed as in vivo. As to conditions: 5 mg/kg i.v. days 1 and 10.
In series [5] the test system is human lung cancer SPC-A4 xenografts. Conditions: 5 mg/kg i.v. days 1 and 6.
Method: Under sterile conditions, well-grown tumors were cut into 1.5 mm^3 fragments and one such fragment was injected by trocar needle into the right flank of each study animal. […] Individual tumor size (length and width) was measured twice per week with microcalipers. Tumor volume (V) was calculated using the formula: V=(length×width^2)/2. Individual relative tumor volume (RTV) was calculated using the formula: RTV=Vt/V0, where Vt is the tumor volume on the day of measurement and V0 is the tumor volume on the day of first treatment. Therapeutic effect of the test article or control article was expressed in terms of T/C (%), using the formula: T/C (%)=(mean RTV of the treated group/mean RTV of the control group)×100%; and in terms of % Inhibition, using the formula: % Inhibition=100%−T/C %.
The 1.5 mm^3 fragments were then used for s.c. implantation into the test animals. The body weight of the animals averaged 22±2 g at dose initiation.

As for `O=c1[nH]cc(F)c(=O)[nH]1` [5FU, reference compound], in series [1], the “level of cleaved caspase-3 and cleaved caspase-8” value is recorded as “enhanced level”; the “level of procaspase-3, procaspase-8 and PARP” value is on record as “significant reduction”.

Consider `CO[C@@]12[C@H](COC(N)=O)C3=C(C(=O)C(C)=C(N)C3=O)N1C[C@@H]1N[C@@H]12` [MMC, Mitomycin C, reference compound], for which the “TV(mm^3, mean ± SD) (D 0)” value stood at 125 ± 35 mm^3 in series [2] (day 0), 130 ± 28 mm^3 in series [3] (day 0), 132 ± 22 mm^3 in series [4] (day 0) and 166 ± 42 mm^3 in series [5] (day 0). The mean body weight in series [2] (day 0) came out at 23.9 gram; in series [2] (day 21), 25.4 gram. Also, the “% Inhibition” value in series [2] (day 21) turned out to be 47.18%; in series [3] (day 28) it was 60.08%; in series [4] (day 28), 62.9%; in series [5] (day 21), 72.87%. Moreover, the “TV(mm^3, mean ± SD) (D 21)” value in series [2] (day 21) is 621 ± 247 mm^3; in series [5] (day 21) it was 1831 ± 540 mm^3. The “T/C (%)” value in series [3] (day 28) was determined as 39.92%; in series [4] (day 28) it was 37.10%; in series [5] (day 21), 27.13%. The “TV(mm^3, mean ± SD) (D 28)” value in series [3] (day 28) stood at 676 ± 358 mm^3; in series [4] (day 28), 395 ± 95 mm^3. Besides, the “RTV (mean ± SD)” value in series [5] (day 21) was 11.54 ± 4.37.

The term % Inhibition denotes the relative decrease from the control value, in per cent. Higher therefore signals a response far below the control.
